Read-outs that look alike come from different tables or passages of the source.

Series [1] concerns SW480 human colon adenocarcinoma cells. The series is described as follows: Sulforhodamine B (SRB) growth inhibition / cytotoxicity, SW480.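 For all read-outs here: cells exposed to graded doses from 10^-5 to 0.2 mM, with 1% DMSO as vehicle control, and cellular protein quantified by SRB staining after trichloroacetic acid fixation.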 It is filed as cell-based. The conditions noted are these: for IC50: Homo sapiens, SRB, mean ± SE; for IC50 / cytotoxic activity (in words): SW480; for cytotoxic activity (in words): 24 h and 48 h after treatment; for SI (selectivity index): ratio IC50 CHO-K1 / IC50 SW480.
Method: Cells were cultured in 25-cm^2 flasks containing Dulbecco’s Modified Eagle Medium, supplemented with 10% heat-inactivated (56 °C) horse serum, 1% penicillin/streptomycin and 1% non-essential amino acids (Gibco Invitrogen, Carlsbad, USA). For all experiments, horse serum was reduced to 3%, and the medium was supplemented with 5 mg/mL transferrin, 5 mg/mL selenium and 10 mg/mL insulin (ITS-defined medium; Gibco, Invitrogen, Carlsbad, USA) ([33]).

For series [2], the system named is non-malignant CHO-K1 cell line. The series is described as follows: Sulforhodamine B (SRB) growth inhibition / cytotoxicity, CHO-K1. The conditions noted are these: Cricetulus griseus, mean ± SE, read-out: IC50 (mM) CHO-K1 cells. It is filed as cell-based. The procedure:
Biological assays were performed using adenocarcinoma colon cancer (SW480) and non-malignant (CHO-K1) cell lines obtained from The European Collection of Authenticated Cell Cultures (ECACC, England). Cells were cultured in 25-cm^2 flasks containing Dulbecco’s Modified Eagle Medium, supplemented with 10% heat-inactivated (56 °C) horse serum, 1% penicillin/streptomycin and 1% non-essential amino acids (Gibco Invitrogen, Carlsbad, USA). For all experiments, horse serum was reduced to 3%, and the medium was supplemented with […] (ITS-defined medium; Gibco, Invitrogen, Carlsbad, USA) ([33]).
The growth inhibition of the ethanol extract, the Chromone and 5-fluorouracil (5-FU; the standard drug) was evaluated through sulforhodamine B (SRB) assay, a colorimetric test that is based on staining of total cellular protein of adherent cells. Cells were seeded to a ﬁnal density of 20.000 cells/well in 96-well tissue culture plates and incubated at 37 °C in a humidified atmosphere at 5% CO2. All cultures were allowed to grow for 24 h. Afterward, they were treated with 1% of DMSO (vehicle control) or increasing concentrations (10^-5–0,2 mM) of the compounds. After treatment, cells were fixed with trichloroacetic acid (50% v/v; MERCK) for one hour at 4 °C. Cell proteins were determined by staining with SRB (0.4% w/v; Sigma-Aldrich, United States), then they were washed with 1% acetic acid to remove unbound SRB and left for air-drying. Protein-bound SRB was solubilized in 10 mM Tris-base, and the absorbance was measured at 492 nm in a microplate reader (Mindray MR-96A) ([33], [34]). All experiments were performed in quintuplicate. These values were used to calculate the IC50, through dose-response curves for each compound and the selectivity index (SI), by the ratio of IC50 values in non-malignant CHO-K1 cells to IC50 of SW480 cells.
All experiments were performed at least three times. Data are reported as mean ± SE (standard error). Statistical differences between the control group (non-treated) and treated cells were evaluated by one-way ANOVA followed by the Dunnett’s test. Values with p ≤ 0.05 were considered significant. Data were analyzed with GraphPad Prism version 7.04 for Windows (Graph Pad Software, San Diego, California, USA).

Series [3] deals with non-cancer CCD841 cells. Set-up: method as in PMID 30429977. The following applies: compared with CRC cell lines; cited from earlier work.

Take `C=CCSC[C@H](NC(=O)C(C)c1ccc2cc(OC)ccc2c1)C(=O)OC` (mixture of isomers) [11a, Methyl S-allyl-N-(2-(6-methoxynaphthalen-2-yl)propanoyl)-L-cysteinate]: the IC50 in series [1] (24 h), in series [1] (48 h), in series [2] (24 h) and in series [2] (48 h) was greater than 0.2 mM throughout. For the same compound, the “cytotoxic activity (in words)” value in series [1] is listed as “displayed activity neither 24 h nor 48 h”.
For `C=CCSC[C@H](NC(=O)C(C)c1ccc2cc(OC)ccc2c1)C(=O)OCC` (mixture of isomers) [11b, Ethyl S-allyl-N-(2-(6-methoxynaphthalen-2-yl)propanoyl)-L-cysteinate], in series [1] (48 h), the “SI (selectivity index)” value is listed as greater than 1.28. In addition, the IC50 in series [1] (24 h) was greater than 0.2 mM; in series [1] (48 h), 0.156 ± 0.008 mM; in series [2] (24 h), greater than 0.2 mM; in series [2] (48 h), greater than 0.2 mM.
On to `C=CCSC[C@H](NC(=O)C(C)c1ccc2cc(OC)ccc2c1)C(=O)OCCC` (mixture of isomers) [11c, Propyl S-allyl-N-(2-(6-methoxynaphthalen-2-yl)propanoyl)-L-cysteinate], for which the 50% inhibitory concentration (IC50) in series [1] (24 h) is greater than 0.2 mM; in series [1] (48 h), 0.237 ± 0.012 mM; in series [2] (24 h), greater than 0.2 mM; in series [2] (48 h), greater than 0.2 mM. Also, in series [1], the “cytotoxic activity (in words)” value was “displayed activity neither 24 h nor 48 h”.
Turning to `C=CCSC[C@H](NC(=O)C(C)c1ccc(CC(C)C)cc1)C(=O)OC` (mixture of isomers) [12a, Methyl S-allyl-N-(2-(4-isobutylphenyl)propanoyl)-L-cysteinate], the melting point was in the range of 89 to 91 °C. Besides, in series [1] (48 h), the “SI (selectivity index)” value came to 0.82 and the IC50 was 0.244 ± 0.011 mM. In series [1] (24 h), this compound came in with an IC50 greater than 0.2 mM. Also, the “cytotoxic activity (in words)” value in series [1] was “displayed activity neither 24 h nor 48 h”. The IC50 in series [2] (24 h) is greater than 0.2 mM. Further, the IC50 in series [2] (48 h) is 0.201 ± 0.001 mM.
`C=CCSC[C@H](NC(=O)C(C)c1ccc(CC(C)C)cc1)C(=O)OCC` (mixture of isomers) [12b, Ethyl S-allyl-N-(2-(4-isobutylphenyl)propanoyl)-L-cysteinate] came in with a melting point of 65 to 67 °C. Further, in series [1] (48 h), the “SI (selectivity index)” value is 1.31 and 0.183 ± 0.005 mM corresponded to half-maximal inhibition (IC50). In series [1] (24 h), this compound had an IC50 greater than 0.2 mM. Moreover, in series [2] (24 h), the half-inhibitory concentration (IC50) was greater than 0.2 mM. The IC50 in series [2] (48 h) stood at 0.241 ± 0.018 mM.
For the compound `C=CCSC[C@H](NC(=O)C(C)c1ccc(CC(C)C)cc1)C(=O)OCCC` (mixture of isomers) [12c, Propyl S-allyl-N-(2-(4-isobutylphenyl)propanoyl)-L-cysteinate], the melting point was 58 to 60 °C. In series [1] (24 h), the “SI (selectivity index)” value is reported as greater than 1.1 and the IC50 is 0.225 ± 0.01 mM. The compound further gave an IC50 in series [1] (48 h) of 0.209 ± 0.005 mM. The “cytotoxic activity (in words)” value in series [1] is listed as “displayed activity neither 24 h nor 48 h”. For the same compound, the IC50 in series [2] (24 h) is greater than 0.2 mM. Besides, in series [2] (48 h), the IC50 is greater than 0.2 mM.
As for `O=c1[nH]cc(F)c(=O)[nH]1` [5-Fluorouracil, reference compound], the “SI (selectivity index)” value in series [1] (48 h) is reported as 1.22; in series [1] (48 h, listed as 5-fluorouracil) it was “higher than 1”. The IC50 in series [1] (24 h) was 0.096 ± 0.024 mM; in series [1] (48 h) it was 0.037 ± 0.013 mM; in series [2] (24 h), 0.125 ± 0.022 mM; in series [2] (48 h) it was 0.046 ± 0.015 mM.
For `C=CCSC[C@H](NC(=O)c1ccccc1O)C(=O)OC` [9a, Methyl S-allyl-N-(2-hydroxybenzoyl)-L-cysteinate], the melting point was 112 to 114 °C. For the same compound, in series [1] (24 h), the “SI (selectivity index)” value was less than 0.73 and the IC50 was greater than 0.2 mM. In series [1] (48 h), the “SI (selectivity index)” value is reported as less than 0.80 and the IC50 was greater than 0.2 mM. Besides, the “cytotoxic activity (in words)” value in series [1] was “displayed activity neither 24 h nor 48 h”. Also, the IC50 in series [2] (24 h) came out at 0.146 ± 0.016 mM. For the same compound, the IC50 in series [2] (48 h) is 0.157 ± 0.005 mM.
With `C=CCSC[C@H](NC(=O)c1ccccc1O)C(=O)OCC` [9b, Ethyl S-allyl-N-(2-hydroxybenzoyl)-L-cysteinate], in series [1] (24 h), the “SI (selectivity index)” value is listed as greater than 1.25. The IC50 in series [1] (24 h) is 0.16 ± 0.013 mM; in series [1] (48 h), greater than 0.2 mM; in series [2] (24 h), greater than 0.2 mM; in series [2] (48 h), greater than 0.2 mM.
For the compound `C=CCSC[C@H](NC(=O)c1ccccc1O)C(=O)OCCC` [9c, Propyl S-allyl-N-(2-hydroxybenzoyl)-L-cysteinate], the IC50 in series [1] (24 h), in series [1] (48 h), in series [2] (24 h) and in series [2] (48 h) was greater than 0.2 mM each time. Moreover, the “cytotoxic activity (in words)” value in series [1] is “displayed activity neither 24 h nor 48 h”.
As for `C=CCSC[C@H](NC(=O)Cc1ccccc1Nc1c(Cl)cccc1Cl)C(=O)OC` [10a, Methyl S-allyl-N-(2-(2-((2,6-dichlorophenyl)amino)phenyl)acetyl)-L-cysteinate], the IC50 is 0.192 ± 0.004 mM in series [1] (24 h), 0.12 ± 0.004 mM in series [1] (48 h), 0.18 ± 0.012 mM in series [2] (24 h) and 0.112 ± 0.008 mM in series [2] (48 h).
As for `C=CCSC[C@H](NC(=O)Cc1ccccc1Nc1c(Cl)cccc1Cl)C(=O)OCC` [10b, Ethyl S-allyl-N-(2-(2-((2,6-dichlorophenyl)amino)phenyl)acetyl)-L-cysteinate], the “SI (selectivity index)” value in series [1] (48 h) is greater than 1.53. Further, the IC50 is 0.24 ± 0.013 mM in series [1] (24 h), 0.131 ± 0.012 mM in series [1] (48 h), greater than 0.2 mM in series [2] (24 h) and greater than 0.2 mM in series [2] (48 h).
Turning to `C=CCSC[C@H](NC(=O)Cc1ccccc1Nc1c(Cl)cccc1Cl)C(=O)OCCC` [10c, Propyl S-allyl-N-(2-(2-((2,6-dichlorophenyl)amino)phenyl)acetyl)-L-cysteinate], the “SI (selectivity index)” value turned out to be 1.09 in series [1] (24 h) and 1.06 in series [1] (48 h). The IC50 in series [1] (24 h) was found to be 0.204 ± 0.005 mM; in series [1] (48 h) it was 0.158 ± 0.002 mM; in series [2] (24 h), 0.223 ± 0.005 mM; in series [2] (48 h) it was 0.167 ± 0.1 mM.
Consider `CC(=O)Oc1ccccc1C(=O)O` [Aspirin, reference compound], for which the half-maximal inhibitory concentration (IC50) in series [1] (24 h), in series [1] (48 h), in series [2] (24 h) and in series [2] (48 h) was greater than 0.2 mM in each case.
Consider `O=C(O)Cc1ccccc1Nc1c(Cl)cccc1Cl` [Diclofenac, reference compound], for which the “SI (selectivity index)” value in series [1] (48 h) stood at 0.98. Further, the IC50 was 0.267 ± 0.01 mM in series [1] (24 h), 0.206 ± 0.011 mM in series [1] (48 h), greater than 0.2 mM in series [2] (24 h) and 0.202 ± 0.001 mM in series [2] (48 h).
As to `CC(C)Cc1ccc(C(C)C(=O)O)cc1` (stereo not drawn) [Ibuprofen, reference compound], the IC50 in series [1] (24 h), in series [1] (48 h), in series [2] (24 h) and in series [2] (48 h) was greater than 0.2 mM in each case.
For the compound `COc1ccc2cc([C@H](C)C(=O)O)ccc2c1` [Naproxen, reference compound], the IC50 in series [2] (24 h) and in series [2] (48 h) was greater than 0.2 mM throughout.
Turning to `COc1ccc(/C=C/C(=O)c2ccc(Cl)cc2)c(OC(=O)c2ccccc2OC(C)=O)c1` [compound 4], the “fold less inhibitory activity against non-cancer CCD841 cells” value in series [3] is given as 8 fold.

Broadly, the IC50 is the concentration needed to halve the response being measured. The melting point is the temperature of the solid-liquid transition.

The record behind these values is article PMC8653649, “Promising Hybrids Derived from S-Allylcysteine and NSAIDs Fragments against Colorectal Cancer: Synthesis, In-vitro Evaluation, Drug-Likeness and In-silico ADME/tox Studies” (Iranian Journal of Pharmaceutical Research : IJPR, 2021).
